Measured values reported in US10988477B2 (Merck Patent GmbH, priority 2018, dated 2021).

Columns and labels:
[1] = molecular target: intracellular GCN2 (phosphorylation of the GCN2 substrate eIF2α) (Homo sapiens, UniProt Q9P2K8); assay: GCN2 cellular inhibition assay (AlphaScreen SureFire P-eIF2α Ser51, borrelidin-treated U2OS cells); format: cell-based; conditions: compounds of Formula IV; biomarker assay, phosphorylated eIF2α Ser51 in borrelidin-treated U2OS cells
Summary of the method: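 U2OS, overnight attach; cpd 4-fold serial dil. from 40 μM final; borrelidin 10 μM, 1 h 37 °C/5% CO2; lyse; AlphaScreen P-eIF2α Ser51 (acceptor 2 h, donor overnight, RT, dark); % inhib. vs borrelidin-only.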

[2] = molecular target: GCN2 kinase (Homo sapiens, UniProt Q9P2K8); assay: GCN2 enzyme inhibition assay (Transcreener ADP2 fluorescence polarization); format: biochemical; conditions: Enzyme activity for compounds of Formula IV; Ki(app), 280 μM ATP, 25° C.
Sequence of GCN2 kinase (Q9P2K8 whole entry): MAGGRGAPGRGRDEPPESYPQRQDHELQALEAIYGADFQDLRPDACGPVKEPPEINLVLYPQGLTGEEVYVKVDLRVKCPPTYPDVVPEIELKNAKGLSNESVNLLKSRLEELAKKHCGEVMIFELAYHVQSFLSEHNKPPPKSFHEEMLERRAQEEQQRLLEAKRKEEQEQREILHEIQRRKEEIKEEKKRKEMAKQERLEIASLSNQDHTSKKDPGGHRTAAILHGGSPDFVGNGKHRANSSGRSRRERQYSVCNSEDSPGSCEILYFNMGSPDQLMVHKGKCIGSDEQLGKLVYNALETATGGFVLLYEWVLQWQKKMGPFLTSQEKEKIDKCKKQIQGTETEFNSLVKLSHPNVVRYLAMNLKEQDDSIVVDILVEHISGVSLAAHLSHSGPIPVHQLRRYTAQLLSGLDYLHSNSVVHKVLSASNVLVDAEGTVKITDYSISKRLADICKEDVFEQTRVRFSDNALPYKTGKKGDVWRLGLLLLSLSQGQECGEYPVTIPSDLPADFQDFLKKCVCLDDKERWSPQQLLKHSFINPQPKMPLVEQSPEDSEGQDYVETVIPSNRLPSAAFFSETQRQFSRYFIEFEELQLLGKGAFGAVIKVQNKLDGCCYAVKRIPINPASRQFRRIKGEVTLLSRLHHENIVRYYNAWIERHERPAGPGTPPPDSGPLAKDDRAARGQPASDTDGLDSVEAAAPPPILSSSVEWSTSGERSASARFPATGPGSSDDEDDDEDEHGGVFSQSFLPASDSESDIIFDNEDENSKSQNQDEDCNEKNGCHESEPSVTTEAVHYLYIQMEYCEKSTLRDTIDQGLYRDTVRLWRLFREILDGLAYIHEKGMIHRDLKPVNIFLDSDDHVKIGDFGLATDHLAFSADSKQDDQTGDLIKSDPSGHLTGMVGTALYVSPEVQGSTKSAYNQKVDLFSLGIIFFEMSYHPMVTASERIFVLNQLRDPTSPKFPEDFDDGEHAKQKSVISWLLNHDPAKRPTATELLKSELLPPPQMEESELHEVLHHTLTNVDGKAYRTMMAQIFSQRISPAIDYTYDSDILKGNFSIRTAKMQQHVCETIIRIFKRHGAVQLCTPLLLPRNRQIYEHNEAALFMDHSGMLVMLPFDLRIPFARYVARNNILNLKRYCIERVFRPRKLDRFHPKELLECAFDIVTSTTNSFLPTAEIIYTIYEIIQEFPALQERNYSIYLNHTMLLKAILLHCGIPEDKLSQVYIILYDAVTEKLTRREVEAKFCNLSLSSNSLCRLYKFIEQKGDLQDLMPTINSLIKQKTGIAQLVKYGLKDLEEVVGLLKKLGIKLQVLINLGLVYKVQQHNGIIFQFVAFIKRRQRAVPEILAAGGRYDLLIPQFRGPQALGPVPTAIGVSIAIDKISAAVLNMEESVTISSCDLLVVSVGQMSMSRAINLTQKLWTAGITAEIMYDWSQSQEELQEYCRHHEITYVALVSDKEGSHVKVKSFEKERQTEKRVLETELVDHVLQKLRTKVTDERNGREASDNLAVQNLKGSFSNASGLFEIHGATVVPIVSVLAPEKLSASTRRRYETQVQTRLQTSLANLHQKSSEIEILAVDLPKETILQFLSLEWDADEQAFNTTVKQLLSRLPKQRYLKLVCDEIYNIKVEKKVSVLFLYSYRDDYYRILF
Summary of the method: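 Run at 25 °C in 25 mM Tris-HCl pH 7.5, 50 mM NaCl, 10 mM MgCl2, 1 mM DTT with 4 nM GCN2, 280 μM ATP and 200 μM (RS)7 peptide; compound (0–8 μM final) preincubated 10 min, reaction 1 h. ADP read by antibody/tracer FP; IC50 and Ki(app) from tight-binding fit.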

Sequence of intracellular GCN2 (phosphorylation of the GCN2 substrate eIF2α) (Q9P2K8 whole entry): as above

| SMILES | IC50 [1] [nM] | Ki [2] [nM] |
| --- | --- | --- |
| FC(F)(F)c1cn2c(-c3nccc(N4CCC=C(c5cnsc5)C4)n3)cnc2cn1 [IV-535, 4-(1-(2-(6-(Trifluoromethyl)imidazo[1,2-a]pyrazin-3-yl)pyrimidin-4-yl)-1,2,5,6-tetrahydropyridin-3-yl)isothiazole] | 500 to 5000 | 10 to 100 |
| N#Cc1n[nH]cc1C1=CCCN(c2ccnc(-c3cnc4cnc(C(F)(F)F)cn34)n2)C1 [IV-548, 4-(1-(2-(6-(Trifluoromethyl)imidazo[1,2-a]pyrazin-3-yl)pyrimidin-4-yl)-1,2,5,6-tetrahydropyridin-3-yl)-1H-pyrazole-3-carbonitrile] | 500 to 5000 | < 10 |
| FC(F)(F)c1cn2c(-c3nccc(N4CC(c5cn[nH]c5)NC(C(F)(F)F)C4)n3)cnc2cn1 (stereo not drawn) [IV-558, 3-(4-(3-(1H-Pyrazol-4-yl)-5-(trifluoromethyl)piperazin-1-yl)pyrimidin-2-yl)-6-(trifluoromethyl)imidazo[1,2-a]pyrazine] | > 5000 | 10 to 100 |
| CC1CN(c2cc(Cl)nc(-c3cnc4cnc(C(F)(F)F)cn34)n2)C(C)C(c2cn[nH]c2)N1 (stereo not drawn) [IV-567, 3-(4-Chloro-6-(2,5-dimethyl-3-(1H-pyrazol-4-yl)piperazin-1-yl)pyrimidin-2-yl)-6-(trifluoromethyl)imidazo[1,2-a]pyrazine] | 500 to 5000 | 10 to 100 |
| FC(F)(F)c1cn2c(-c3nccc(N4CCC(c5c[nH]nc5C(F)(F)F)C4)n3)cnc2cn1 (stereo not drawn) [IV-572, 6-(Trifluoromethyl)-3-(4-(3-(3-(trifluoromethyl)-1H-pyrazol-4-yl)pyrrolidin-1-yl)pyrimidin-2-yl)imidazo[1,2-a]pyrazine] | 500 to 5000 | < 10 |
| OCc1n[nH]cc1C1CCN(c2ccnc(-c3cnc4cnc(C(F)(F)F)cn34)n2)C1 (stereo not drawn) [IV-573, (4-(1-(2-(6-(Trifluoromethyl)imidazo[1,2-a]pyrazin-3-yl)pyrimidin-4-yl)pyrrolidin-3-yl)-1H-pyrazol-3-yl)methanol] | 500 to 5000 | 10 to 100 |
| Cc1n[nH]c(C)c1C1CCN(c2ccnc(-c3cnc4cnc(C(F)(F)F)cn34)n2)C1 (stereo not drawn) [IV-574, 3-(4-(3-(3,5-Dimethyl-1H-pyrazol-4-yl)pyrrolidin-1-yl)pyrimidin-2-yl)-6-(trifluoromethyl)imidazo[1,2-a]pyrazine] | > 5000 | 10 to 100 |
| Cc1n[nH]cc1C1CCN(c2ccnc(-c3cnc4cnc(C(F)(F)F)cn34)n2)C1 (stereo not drawn) [IV-575, 3-(4-(3-(3-Methyl-1H-pyrazol-4-yl)pyrrolidin-1-yl)pyrimidin-2-yl)-6-(trifluoromethyl)imidazo[1,2-a]pyrazine] | 500 to 5000 | 10 to 100 |
| FC(F)(F)c1cn2c(-c3nccc(N4CCC(c5c[nH]nc5C5CC5)C4)n3)cnc2cn1 (stereo not drawn) [IV-576, 3-(4-(3-(3-Cyclopropyl-1H-pyrazol-4-yl)pyrrolidin-1-yl)pyrimidin-2-yl)-6-(trifluoromethyl)imidazo[1,2-a]pyrazine] | 500 to 5000 | 10 to 100 |
| CC1CN(c2cncc(-c3cnc4cnc(C(F)(F)F)cn34)n2)C(C)C(c2cn[nH]c2)N1 (stereo not drawn) [IV-577, 3-(6-(2,5-Dimethyl-3-(1H-pyrazol-4-yl)piperazin-1-yl)pyrazin-2-yl)-6-(trifluoromethyl)imidazo[1,2-a]pyrazine] | 500 to 5000 | < 10 |
| CNc1cc(N2CC(C)NC(c3cn[nH]c3)C2C)nc(-c2cnc3cnc(C(F)(F)F)cn23)n1 (stereo not drawn) [IV-578, 6-(2,5-Dimethyl-3-(1H-pyrazol-4-yl)piperazin-1-yl)-N-methyl-2-(6-(trifluoromethyl)imidazo[1,2-a]pyrazin-3-yl)pyrimidin-4-amine] | 500 to 5000 | < 10 |
| FC(F)(F)c1cn2c(-c3nccc(N4CCC(C5CCOC5)C4)n3)cnc2cn1 (stereo not drawn) [IV-580, 3-(4-(3-(Tetrahydrofuran-3-yl)pyrrolidin-1-yl)pyrimidin-2-yl)-6-(trifluoromethyl)imidazo[1,2-a]pyrazine] | > 5000 | 10 to 100 |
